In brackets after ≈: the same amount, converted by molar mass.
Tests used:
[1] = Inhibition of Escherichia coli recombinant gyrase A2B2 assessed as reduction of pHOT-1 supercoiling after 90 mins
Escherichia coli [2] = assay: Antibacterial activity against wild type Escherichia coli ATCC 25922 by broth microdilution method; type: functional
Escherichia coli [3] = assay: Antibacterial activity against wild type Escherichia coli BW5328/pAH69 by broth microdilution method; type: functional
Escherichia coli [4] = assay: Antibacterial activity against tolC-deficient Escherichia coli JW5503-1 by broth microdilution method; type: functional
Escherichia coli [5] = assay: Antibacterial activity against tolC-deficient Escherichia coli NB27005-CDY0039 expressing gyrA S83L […], parC S80I mutant by broth microdilution method; type: functional
Escherichia coli [6] = assay: Antibacterial activity against wild type Escherichia coli MC4100 by broth microdilution method; type: functional
Escherichia coli [7] = assay: Antibacterial activity against Escherichia coli imp-4213 by broth microdilution method; type: functional
Escherichia coli [8] = assay: Antibacterial activity against fluoroquinolone-resistant Escherichia coli CH10 harboring gyrA S83L D87N, parC S80I E84G, AcrA+ by broth microdilution method; type: functional
Staphylococcus aureus [9] = assay: Antibacterial activity against wild type Staphylococcus aureus ATCC 29213 by broth microdilution method; type: functional
Staphylococcus aureus [10] = assay: Antibacterial activity against wild type methicillin-susceptible Staphylococcus aureus ATCC 49951 by broth microdilution method; type: functional
Staphylococcus aureus [11] = assay: Antibacterial activity against fluoroquinolone-resistant Staphylococcus aureus NB01006-AVR005 harboring gyrA S84L, parC S80F, parE E471K by broth microdilution method; type: functional
Pseudomonas aeruginosa [12] = assay: Antibacterial activity against wild type Pseudomonas aeruginosa PAO1 by broth microdilution method; type: functional
Pseudomonas aeruginosa [13] = assay: Antibacterial activity against Pseudomonas aeruginosa K1542 deficient with mexX, mexB by broth microdilution method; type: functional
Pseudomonas aeruginosa [14] = assay: Antibacterial activity against mexX, mexB deficient Pseudomonas aeruginosa NB52023-CDK005 harboring gyrAT83I by broth microdilution method; type: functional
Pseudomonas aeruginosa [15] = assay: Antibacterial activity against mexX, mexB deficient Pseudomonas aeruginosa NB52023-CDK006 harboring gyrAT83I and parC S87L by broth microdilution method; type: functional

Row | Structure (SMILES) | IC50 [1] | MIC (Escherichia coli [2]) | MIC (Escherichia coli [3]) | MIC (Escherichia coli [4]) | MIC (Escherichia coli [5]) | MIC (Escherichia coli [6]) | MIC (Escherichia coli [7]) | MIC (Escherichia coli [8]) | MIC (Staphylococcus aureus [9]) | MIC (Staphylococcus aureus [10]) | MIC (Staphylococcus aureus [11]) | MIC (Pseudomonas aeruginosa [12]) | MIC (Pseudomonas aeruginosa [13]) | MIC (Pseudomonas aeruginosa [14]) | MIC (Pseudomonas aeruginosa [15])
1 | O=C(CN1CCN(c2cc3c(cc2F)c(=O)c(C(=O)O)cn3C2CC2)CC1)NCCCN1CCN(CCCNC(=O)CN2CCN(c3cc4c(cc3F)c(=O)c(C(=O)O)cn4C3CC3)CC2)CC1 | 1.59 µM | > 32 µg/mL | > 32 µg/mL | 2 µg/mL (≈ 2.12 µM) | > 32 µg/mL | > 32 µg/mL | 8 µg/mL (≈ 8.48 µM) | > 32 µg/mL | 32 µg/mL (≈ 33.9 µM) | 8 µg/mL (≈ 8.48 µM) | > 32 µg/mL | > 32 µg/mL | > 32 µg/mL | > 32 µg/mL | > 32 µg/mL
2 | O=C(O)c1cn(C2CC2)c2cc(N3CCN(CCOCCOCCN4CCN(c5cc6c(cc5F)c(=O)c(C(=O)O)cn6C5CC5)CC4)CC3)c(F)cc2c1=O | 28.2 µM | 2 µg/mL (≈ 2.57 µM) | 2 µg/mL (≈ 2.57 µM) | 0.25 µg/mL (≈ 0.322 µM) | > 32 µg/mL | 2 µg/mL (≈ 2.57 µM) | 0.5 µg/mL (≈ 0.644 µM) | > 32 µg/mL | 16 µg/mL (≈ 20.6 µM) | 16 µg/mL (≈ 20.6 µM) | > 32 µg/mL | 32 µg/mL (≈ 41.2 µM) | 8 µg/mL (≈ 10.3 µM) | > 32 µg/mL | > 32 µg/mL
3 | O=C(CCN1CCN(c2cc3c(cc2F)c(=O)c(C(=O)O)cn3C2CC2)CC1)NCCOCCNC(=O)CCN1CCN(c2cc3c(cc2F)c(=O)c(C(=O)O)cn3C2CC2)CC1 | 9.09 µM | 32 µg/mL (≈ 36.6 µM) | 32 µg/mL (≈ 36.6 µM) | 4 µg/mL (≈ 4.57 µM) | > 32 µg/mL | 32 µg/mL (≈ 36.6 µM) | 8 µg/mL (≈ 9.14 µM) | > 32 µg/mL | > 32 µg/mL | > 32 µg/mL | > 32 µg/mL | > 32 µg/mL | > 32 µg/mL | > 32 µg/mL | > 32 µg/mL
4 | CC(C)(C)OC(=O)NCCCCCC(=O)N1CCN(c2cc3c(cc2F)c(=O)c(C(=O)O)cn3C2CC2)CC1 | 4.35 µM | > 32 µg/mL | > 32 µg/mL | 0.06 µg/mL (≈ 0.11 µM) | 2 µg/mL (≈ 3.67 µM) | > 32 µg/mL | 0.25 µg/mL (≈ 0.459 µM) | > 32 µg/mL | 2 µg/mL (≈ 3.67 µM) | 2 µg/mL (≈ 3.67 µM) | > 32 µg/mL | > 32 µg/mL | > 32 µg/mL | > 32 µg/mL | > 32 µg/mL
5 | O=C(CN1CCN(c2cc3c(cc2F)c(=O)c(C(=O)O)cn3C2CC2)CC1)NCCOCCOCCNC(=O)CN1CCN(c2cc3c(cc2F)c(=O)c(C(=O)O)cn3C2CC2)CC1 | 1.04 µM | 32 µg/mL (≈ 35.9 µM) | 32 µg/mL (≈ 35.9 µM) | 4 µg/mL (≈ 4.49 µM) | > 32 µg/mL | 32 µg/mL (≈ 35.9 µM) | 8 µg/mL (≈ 8.98 µM) | > 32 µg/mL | > 32 µg/mL | > 32 µg/mL | > 32 µg/mL | > 32 µg/mL | 32 µg/mL (≈ 35.9 µM) | > 32 µg/mL | > 32 µg/mL
6 | C=CCN1CCN(c2cc3c(cc2F)c(=O)c(C(=O)O)cn3C2CC2)CC1 | 0.58 µM | ≤ 0.03 µg/mL | 0.06 µg/mL (≈ 0.162 µM) | ≤ 0.03 µg/mL | 2 µg/mL (≈ 5.38 µM) | 0.06 µg/mL (≈ 0.162 µM) | ≤ 0.03 µg/mL | > 32 µg/mL | 0.125 µg/mL (≈ 0.337 µM) | 0.125 µg/mL (≈ 0.337 µM) | 32 µg/mL (≈ 86.2 µM) | 1 µg/mL (≈ 2.69 µM) | 0.25 µg/mL (≈ 0.673 µM) | 4 µg/mL (≈ 10.8 µM) | 32 µg/mL (≈ 86.2 µM)
7 | O=C(O)c1cn(C2CC2)c2cc(N3CCN(Cc4cccc(CN5CCN(c6cc7c(cc6F)c(=O)c(C(=O)O)cn7C6CC6)CC5)c4)CC3)c(F)cc2c1=O | 1.18 µM | 1 µg/mL (≈ 1.31 µM) | 2 µg/mL (≈ 2.61 µM) | 0.06 µg/mL (≈ 0.0784 µM) | > 32 µg/mL | 2 µg/mL (≈ 2.61 µM) | ≤ 0.03 µg/mL | > 32 µg/mL | 0.5 µg/mL (≈ 0.654 µM) | 0.25 µg/mL (≈ 0.327 µM) | 32 µg/mL (≈ 41.8 µM) | 32 µg/mL (≈ 41.8 µM) | 8 µg/mL (≈ 10.5 µM) | > 32 µg/mL | > 32 µg/mL
8 | O=C(O)c1cn(C2CC2)c2cc(N3CCN(C(=O)OCCOCCOCCOC(=O)N4CCN(c5cc6c(cc5F)c(=O)c(C(=O)O)cn6C5CC5)CC4)CC3)c(F)cc2c1=O | 7.25 µM | 16 µg/mL (≈ 18.5 µM) | 16 µg/mL (≈ 18.5 µM) | 0.125 µg/mL (≈ 0.145 µM) | 32 µg/mL (≈ 37 µM) | 16 µg/mL (≈ 18.5 µM) | 0.25 µg/mL (≈ 0.289 µM) | > 32 µg/mL | 4 µg/mL (≈ 4.63 µM) | 2 µg/mL (≈ 2.31 µM) | > 32 µg/mL | > 32 µg/mL | 16 µg/mL (≈ 18.5 µM) | > 32 µg/mL | > 32 µg/mL
9 | O=C(O)c1cn(C2CC2)c2cc(N3CCN(CCOCCOCCOCCN4CCN(c5cc6c(cc5F)c(=O)c(C(=O)O)cn6C5CC5)CC4)CC3)c(F)cc2c1=O | 4.04 µM | 1 µg/mL (≈ 1.22 µM) | 1 µg/mL (≈ 1.22 µM) | 0.125 µg/mL (≈ 0.152 µM) | > 32 µg/mL | 1 µg/mL (≈ 1.22 µM) | 0.25 µg/mL (≈ 0.305 µM) | > 32 µg/mL | 16 µg/mL (≈ 19.5 µM) | 8 µg/mL (≈ 9.75 µM) | > 32 µg/mL | 16 µg/mL (≈ 19.5 µM) | 32 µg/mL (≈ 39 µM) | 32 µg/mL (≈ 39 µM) | > 32 µg/mL
10 | O=C(NCCCCC(=O)N1CCN(c2cc3c(cc2F)c(=O)c(C(=O)O)cn3C2CC2)CC1)c1cccc(C(=O)NCCCCC(=O)N2CCN(c3cc4c(cc3F)c(=O)c(C(=O)O)cn4C3CC3)CC2)c1 | 9.97 µM | 16 µg/mL (≈ 16.1 µM) | 16 µg/mL (≈ 16.1 µM) | 0.5 µg/mL (≈ 0.505 µM) | > 32 µg/mL | 16 µg/mL (≈ 16.1 µM) | 2 µg/mL (≈ 2.02 µM) | > 32 µg/mL | > 32 µg/mL | 4 µg/mL (≈ 4.04 µM) | > 32 µg/mL | > 32 µg/mL | > 32 µg/mL | > 32 µg/mL | > 32 µg/mL
11 | CN(CC(=O)N1CCN(c2cc3c(cc2F)c(=O)c(C(=O)O)cn3C2CC2)CC1)CC(=O)N1CCN(c2cc3c(cc2F)c(=O)c(C(=O)O)cn3C2CC2)CC1 | 4.37 µM | 0.25 µg/mL (≈ 0.323 µM) | 0.25 µg/mL (≈ 0.323 µM) | 0.06 µg/mL (≈ 0.0775 µM) | 32 µg/mL (≈ 41.4 µM) | 0.25 µg/mL (≈ 0.323 µM) | 0.06 µg/mL (≈ 0.0775 µM) | > 32 µg/mL | 4 µg/mL (≈ 5.17 µM) | 2 µg/mL (≈ 2.58 µM) | > 32 µg/mL | 2 µg/mL (≈ 2.58 µM) | 0.5 µg/mL (≈ 0.646 µM) | 8 µg/mL (≈ 10.3 µM) | 32 µg/mL (≈ 41.4 µM)
12 | O=C(O)c1cn(C2CC2)c2cc(N3CCN(C(=O)c4cccc(C(=O)N5CCN(c6cc7c(cc6F)c(=O)c(C(=O)O)cn7C6CC6)CC5)c4)CC3)c(F)cc2c1=O | 0.11 µM | > 32 µg/mL | > 32 µg/mL | 0.125 µg/mL (≈ 0.158 µM) | > 32 µg/mL | > 32 µg/mL | 0.06 µg/mL (≈ 0.0757 µM) | > 32 µg/mL | 2 µg/mL (≈ 2.52 µM) | 0.25 µg/mL (≈ 0.315 µM) | > 32 µg/mL | > 32 µg/mL | > 32 µg/mL | > 32 µg/mL | > 32 µg/mL
13 | O=C(NCC(=O)N1CCN(c2cc3c(cc2F)c(=O)c(C(=O)O)cn3C2CC2)CC1)c1cccc(C(=O)NCC(=O)N2CCN(c3cc4c(cc3F)c(=O)c(C(=O)O)cn4C3CC3)CC2)c1 | 3.2 µM | 1 µg/mL (≈ 1.1 µM) | 2 µg/mL (≈ 2.21 µM) | 0.25 µg/mL (≈ 0.276 µM) | > 32 µg/mL | 2 µg/mL (≈ 2.21 µM) | 0.25 µg/mL (≈ 0.276 µM) | > 32 µg/mL | > 32 µg/mL | 1 µg/mL (≈ 1.1 µM) | > 32 µg/mL | 16 µg/mL (≈ 17.6 µM) | 2 µg/mL (≈ 2.21 µM) | 32 µg/mL (≈ 35.3 µM) | > 32 µg/mL
14 | O=C(O)c1cn(C2CC2)c2cc(N3CCN(CCOCCOCCOCCOCCOCCOCCOCCN4CCN(c5cc6c(cc5F)c(=O)c(C(=O)O)cn6C5CC5)CC4)CC3)c(F)cc2c1=O | 1.38 µM | 2 µg/mL (≈ 2.01 µM) | 4 µg/mL (≈ 4.01 µM) | 0.125 µg/mL (≈ 0.125 µM) | 8 µg/mL (≈ 8.02 µM) | 4 µg/mL (≈ 4.01 µM) | 4 µg/mL (≈ 4.01 µM) | > 32 µg/mL | 4 µg/mL (≈ 4.01 µM) | 1 µg/mL (≈ 1 µM) | > 32 µg/mL | 16 µg/mL (≈ 16 µM) | 16 µg/mL (≈ 16 µM) | > 32 µg/mL | > 32 µg/mL

Reference: ChEMBL document CHEMBL3603745, “Synthesis of ciprofloxacin dimers for evaluation of bacterial permeability in atypical chemical space” (Bioorg Med Chem Lett, 2015)
